US11802110B2, “2-amino-N-(arylsulfinyl)-acetamide compounds as inhibitors of bacterial aminoacyl-tRNA synthetase” (priority 2016, dated 2023)
Values after ≈ are worked out from the molar mass of the structure shown. Like-named read-outs stand apart in the source and are kept apart here.

Assays:
E. Coli LeuRS = E. Coli LeuRS (Escherichia coli (strain K12), UniProt P07813); assay: Study 2 - Isothermal titration calorimetry (ITC); format: binding; settings: 25° C., pH 7.5, mean ± SD
Method: Escherichia coli BL21(DE3) cells transformed with plasmid pQE-60 containing the open-reading frame sequence of one targeted aaRS (i.e., LeuRS) were induced with 1 mM IPTG (isopropyl β-D-1-thiogalactopyranoside) for 3 hours at 37° C. Bacterial cells were harvested and lysed with 20 mM HEPES (4-(2-hydroxyethyl)-1-piperazinylethane-sulfonic acid) (pH 7.5), 300 mM NaCl, 15 mM imidazole and 1 mM DTT (1,4-dithio-D-threitol). The pathogenic aaRS was first purified by nickel affinity standard chromatography. The eluted protein was concentrated and then further purified by gel filtration using 50 mM HEPES (pH 7.5), 150 mM NaCl buffer.
ITC studies were carried out using a Microcal ITC200 instrument (GE Healthcare). Protein concentration was determined by spectrophotometry by measuring the absorbance at 280 nm using a theoretical molar extinction coefficient of 169,140 M^−1cm^−1. Ligand stock solutions were prepared in DMSO at 62.5 mM concentration. The titrations were performed at 25° C. with 7.5-100 μM E. Coli LeuRS in 50 mM HEPES, 150 mM NaCl, pH 7.5 buffer containing 1% DMSO (v/v). The protein solution in the 280 μL sample cell was titrated with the inhibitor solution (diluted to 75-3000 μM in the same buffer as the protein) using 1-2 μL injections every 120-140 seconds. All titrations were repeated at least two times. To correct for heats of dilution and mixing, the final baseline consisting of small peaks of identical size at the end of each experiment was subtracted. The experimental data were fitted to a theoretical titration curve (one site model) using MicroCal Origin 7 SR4 software.
Note that Compounds R-4.1 and S-4.1 (in Table 15, below) correspond to Compounds V-i and V-ii (in Tables 13 and 14, above), respectively.

[1] = system: Acinetobacter baumannii B1931 clinical isolate; assay: Study 4 - MIC by broth micro-dilution (CLSI); format: cell-based; settings: Acinetobacter baumannii
Method: (§1) Minimum Inhibitory Concentrations (MICs) were determined by the broth micro-dilution method performed according to Clinical Laboratory Standards Institute guidelines. For testing, 5 mg/mL DMSO solutions were prepared by dissolving solids in DMSO. Standard antibiotics were prepared according to CLSI guidelines as 5 mg/mL stock solutions. Upon DMSO stock solutions preparation, the working solutions in MH media were prepared by adding 38.4 μL of stock solution to 1461.6 μL of MH media. Out of these working solutions 100 μL were transferred to wells in the third column of 96-well assay plates. Assay plates were previously filled with 50 μL of MH media in all wells except for the wells in the third column. Upon compounds and antibiotics addition, 50 μL was transferred from the third to the fourth column, then from the fourth to the fifth and so on.
(§2) MIC value was determined by visual inspection of bacterial growth within 96-well plates. The first column in which there was no visible growth of bacteria was determined as MIC value for compound or antibiotic tested in that particular row. ATCC strains were used as reference strains for which there is a determined value of MIC values for standard antibiotics. The assay is considered valid when MIC values for standard antibiotics are within CLSI designated range for ATCC strain tested.

[2] = system: Enterobacter cloacae B1966 clinical isolate; assay: Study 4 - MIC by broth micro-dilution (CLSI); format: cell-based; settings: Enterobacter cloacae
Method: as §1, §2

[3] = system: Escherichia coli ATCC 25922; assay: Study 4 - MIC by broth micro-dilution (CLSI); format: cell-based; settings: Escherichia coli, ATCC25922
Method: as §1, §2

[4] = system: Haemophilus influenzae ATCC 49247; assay: Study 4 - MIC by broth micro-dilution (CLSI); format: cell-based; settings: Haemophilus influenzae, ATCC49247
Method: as §1, §2

[5] = system: Klebsiella pneumoniae ATCC 700603; assay: Study 4 - MIC by broth micro-dilution (CLSI); format: cell-based; settings: Klebsiella pneumoniae, ATCC700603
Method: as §1, §2

[6] = system: Pseudomonas aeruginosa ATCC 27853; assay: Study 4 - MIC by broth micro-dilution (CLSI); format: cell-based; settings: Pseudomonas aeruginosa, ATCC27853
Method: as §1, §2

[7] = system: Escherichia coli ATCC 25922 TolC deficient mutant (E. coli EFFLUX del); assay: microbe, parasite or virus in culture; format: cell-based; settings: Escherichia coli, ATCC25922
Method: as §1, §2

[8] = Human cell viability (cytotoxicity), ATP levels by CellTiter-Glo; format: cell-based; settings: HepG2 cells (ATCC HB-8065), 24 hours incubation, read-out: IC50 (μg/mL), Cytotoxicity in HepG2 ATCC HB-8065 Cell Line
Method: Compounds were assessed for potential non-specific cytotoxic effects against a human hepatic cell line (HepG2 ATCC HB-8065). 96-well plates were seeded with HepG2 cells in concentration of 15,000 cells per well in 100 μL of MEM growth media completed with 1% NEAA and 1% sodium pyruvate. Border wells were filled with 100 μL of sterile PBS. Two days upon cells incubation, the compounds were added. Compound dilutions were prepared in 96-well V-bottom plate in pure DMSO. Growth media from 5 plates were aspirated and replaced with 98.7 μL of fresh growth media. 1.28 μL of compounds prepared in V-bottom plates were transferred with multichannel pipette into test plates (78.1× dilution). Final DMSO concentration was 1.28% per well. In control wells, 1.28 μL of DMSO was added in 98.7 μL of media. Compounds were tested in duplicates. Cells were incubated with compounds for 24 hours when cell viability was assessed by measuring ATP levels. ATP levels were measured by adding 50 μL of CellTiter-Glo reagent to each well and after 5 minutes of incubation luminescence was measured with SpectraMax i3. The potential effect of tested compounds on cell viability was determined by comparing the signal obtained in presence of different concentrations of the compounds with those obtained in the presence of DMSO only. The potential effects were then calculated and presented as IC50 values (μg/mL).

[9] = G = H. influenzae ATCC 49247, read-out: MIC

E. Coli LeuRS, sequence (P07813 whole entry): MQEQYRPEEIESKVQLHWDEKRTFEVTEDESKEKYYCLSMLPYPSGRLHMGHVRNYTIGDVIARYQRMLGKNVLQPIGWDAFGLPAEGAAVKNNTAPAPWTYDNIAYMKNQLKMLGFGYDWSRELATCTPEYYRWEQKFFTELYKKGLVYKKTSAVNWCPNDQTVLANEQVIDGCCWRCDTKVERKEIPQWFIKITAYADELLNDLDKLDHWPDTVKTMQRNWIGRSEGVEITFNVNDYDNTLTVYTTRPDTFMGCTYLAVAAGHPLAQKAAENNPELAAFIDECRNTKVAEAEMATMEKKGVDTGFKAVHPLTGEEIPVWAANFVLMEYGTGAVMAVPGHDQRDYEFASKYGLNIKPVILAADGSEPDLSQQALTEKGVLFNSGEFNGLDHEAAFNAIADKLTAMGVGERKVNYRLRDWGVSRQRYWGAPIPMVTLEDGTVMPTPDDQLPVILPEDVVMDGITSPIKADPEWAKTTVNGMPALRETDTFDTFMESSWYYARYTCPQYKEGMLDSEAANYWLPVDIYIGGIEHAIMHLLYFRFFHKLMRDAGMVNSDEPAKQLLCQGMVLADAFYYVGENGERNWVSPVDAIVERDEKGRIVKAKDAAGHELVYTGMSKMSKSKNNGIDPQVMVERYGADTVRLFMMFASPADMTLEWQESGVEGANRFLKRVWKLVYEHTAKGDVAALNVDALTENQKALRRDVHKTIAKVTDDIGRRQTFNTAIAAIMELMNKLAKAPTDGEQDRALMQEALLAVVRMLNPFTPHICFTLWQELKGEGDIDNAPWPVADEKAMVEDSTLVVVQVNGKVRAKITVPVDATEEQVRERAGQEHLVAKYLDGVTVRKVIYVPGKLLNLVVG

SMILES	Kd (E. Coli LeuRS) [nM]	ΔG (E. Coli LeuRS) [kcal/mol]	ΔH (E. Coli LeuRS) [kcal/mol]	MIC [1] [µg/mL]	MIC [2] [µg/mL]	MIC [3] [µg/mL]	MIC [4] [µg/mL]	MIC [5] [µg/mL]	MIC [6] [µg/mL]	MIC [7] [µg/mL]	IC50 at 24 h [8] [µg/mL]	MIC [4, 9] [µg/mL]
CC(C)C[C@H](N)C(=O)N[S@+]([O-])c1ccccc1 (single isomer, unassigned) [R-4.1, 2,2,2-trifluoroacetate]	3.86 ± 0.24	-11.48 ± 0.04	-11.92 ± 0.34	8 (≈ 31.5 µM)	4 (≈ 15.7 µM)	2 (≈ 7.86 µM)	16 (≈ 62.9 µM)	8 (≈ 31.5 µM)	32 (≈ 126 µM)	2 (≈ 7.86 µM)	> 64	–
CC(C)C[C@H](N)C(=O)N[S@@+]([O-])c1ccccc1 (single isomer, unassigned) [S-4.1]	9130 ± 2720	-6.89 ± 0.16	-2.33 ± 0.13	> 64	> 64	64 (≈ 252 µM)	–	> 64	> 64	64 (≈ 252 µM)	> 64	> 64
C=Cc1cccc([S+]([O-])NC(=O)C(N)CC(C)C)c1 (centres unmarked) [4.16]	27.2 ± 8.44	-10.34 ± 0.19	-4.89 ± 0.08	32 (≈ 114 µM)	32 (≈ 114 µM)	8 (≈ 28.5 µM)	–	> 64	> 64	8 (≈ 28.5 µM)	> 64	32 (≈ 114 µM)
CC(C)CC(N)C(=O)N[S+]([O-])c1cccc(-c2ccccc2)c1 (centres unmarked) [4.17]	4.47 ± 0.04	-11.39 ± 0.01	-9.72 ± 0.22	> 64	> 64	> 64	–	> 64	> 64	64 (≈ 194 µM)	47.7 (≈ 144 µM)	> 64
CC(C)CC(N)C(=O)N[S+]([O-])c1cccc(C(F)(F)F)c1 (centres unmarked) [4.18]	6.06 ± 0.49	-11.20 ± 0.06	-7.03 ± 0.14	> 64	> 64	64 (≈ 199 µM)	–	> 64	> 64	16 (≈ 49.6 µM)	> 64	> 64
CC(C)CC(N)C(=O)N[S+]([O-])c1cccc(OC(F)(F)F)c1 (centres unmarked) [4.20]	1.39 ± 0.07	-12.08 ± 0.03	-11.64 ± 0.45	> 64	> 64	8 (≈ 23.6 µM)	–	> 64	> 64	8 (≈ 23.6 µM)	> 64	64 (≈ 189 µM)
COC(=O)c1cccc([S+]([O-])NC(=O)C(N)CC(C)C)c1 (centres unmarked) [4.21]	6.61 ± 0.83	-11.16 ± 0.07	-8.23 ± 0.43	> 64	> 64	32 (≈ 102 µM)	–	> 64	> 64	32 (≈ 102 µM)	> 64	> 64
CNc1cccc([S+]([O-])NC(=O)C(N)CC(C)C)c1 (centres unmarked) [4.22]	34.5 ± 0.76	-10.17 ± 0.02	-4.27 ± 0.19	32 (≈ 113 µM)	32 (≈ 113 µM)	16 (≈ 56.5 µM)	–	64 (≈ 226 µM)	> 64	16 (≈ 56.5 µM)	> 64	> 64
C#Cc1cccc([S+]([O-])NC(=O)C(N)CC(C)C)c1 (centres unmarked) [4.27]	3.69 ± 0.05	-11.50 ± 0.00	-8.71 ± 1.08	> 64	8 (≈ 28.7 µM)	4 (≈ 14.4 µM)	–	32 (≈ 115 µM)	> 64	2 (≈ 7.18 µM)	> 64	16 (≈ 57.5 µM)
CC(C)CC(N)C(=O)N[S+]([O-])c1ccc(F)cc1 (centres unmarked) [4.29]	9.14 ± 0.3	-10.96 ± 0.01	-10.95 ± 0.18	16 (≈ 58.7 µM)	16 (≈ 58.7 µM)	8 (≈ 29.4 µM)	–	64 (≈ 235 µM)	> 64	16 (≈ 58.7 µM)	> 64	32 (≈ 117 µM)
CC(C)CC(N)C(=O)N[S+]([O-])c1ccccc1F (centres unmarked) [4.31]	6.78 ± 1.73	-11.15 ± 0.16	-12.97 ± 2.04	4 (≈ 14.7 µM)	4 (≈ 14.7 µM)	2 (≈ 7.34 µM)	–	2 (≈ 7.34 µM)	32 (≈ 117 µM)	2 (≈ 7.34 µM)	> 64	8 (≈ 29.4 µM)
CC(C)CC(N)C(=O)N[S+]([O-])c1ccccc1Cl (centres unmarked) [4.32]	4.61 ± 0.06	-11.37 ± 0.01	-10.62 ± 0.25	16 (≈ 55.4 µM)	16 (≈ 55.4 µM)	4 (≈ 13.9 µM)	–	16 (≈ 55.4 µM)	> 64	8 (≈ 27.7 µM)	> 64	32 (≈ 111 µM)
CC(C)CC(N)C(=O)N[S+]([O-])c1cccc(F)c1F (centres unmarked) [4.34]	288 ± 42.9	-8.93 ± 0.08	-9.90 ± 0.40	2 (≈ 6.89 µM)	1 (≈ 3.44 µM)	0.5 (≈ 1.72 µM)	–	1 (≈ 3.44 µM)	32 (≈ 110 µM)	0.25 (≈ 0.861 µM)	> 64	4 (≈ 13.8 µM)
CC(C)CC(N)C(=O)N[S+]([O-])c1cc(F)cc(F)c1 (centres unmarked) [4.35]	16.4 ± 2.72	-10.63 ± 0.10	-9.97 ± 0.10	> 64	64 (≈ 220 µM)	16 (≈ 55.1 µM)	–	> 64	> 64	16 (≈ 55.1 µM)	> 64	> 64
CC(C)CC(N)C(=O)N[S+]([O-])c1ccc(F)c(Cl)c1 (centres unmarked) [4.37]	–	–	–	64 (≈ 209 µM)	64 (≈ 209 µM)	8 (≈ 26.1 µM)	–	> 64	> 64	8 (≈ 26.1 µM)	> 64	32 (≈ 104 µM)
CC(C)C[C@H](N)C(=O)N[S@+]([O-])c1cccc(Cl)c1 [R-4.12]	1.48 ± 0.08	-11.96 ± 0.12	-10.75 ± 1.06	32 (≈ 111 µM)	8 (≈ 27.7 µM)	2 (≈ 6.93 µM)	–	32 (≈ 111 µM)	> 64	2 (≈ 6.93 µM)	> 64	8 (≈ 27.7 µM)
